Results on one compound are retold here after US7132287B2, “Method for neural stem cell differentiation using 5HT-1A agonists” (Psychiatric Genomics, Inc., priority 2001, dated 2006).

This experiment concerns cerebellar stem cells. Briefly: Neuronal differentiation of cerebellar stem cells (TuJ1 positive cells). The experiment is classed as cell-based, rat. The source says:
Isolation and quantitation of cerebellar stem cells. Neural stem cells were isolated from rat embryos (obtained from Taconic) at the 19th day of gestation (E19). The rats were sacrificed by inhalation of excess carbon dioxide. The abdomen of the rat was cleaned with 70% ethanol and the uterus was removed quickly and aseptically on the bench top. The uterus was placed in ice cold PBS (GIBCO Cat. # 20012-027) in a 200-ml beaker.
The cerebellar tissue was dissected under a microscope according to the following procedure and collected in a 15-ml tube containing HBSS on ice. The dissection should be completed in 1–2 hours (optimally) and the pH of the HBSS should remain neutral. First, the neck of the embryos was severed towards the bottom and the heads were collected in cold PBS. Next, the skin and scalp was removed from neck and head of the embryo. The brain, including the cerebral cortex, midbrain, cerebellum and some of the spinal cord, was removed by dissection under a microscope and transfered into a clean dish with fresh, cold PBS. The cerebellar region was dissected and cleaned of extraneous tissue, including removal of the meninges, and transferred into cold HBSS in a clean 15 ml tube.
The tube containing the cerebellar tissue was centrifuged at 1,000 RPM for 2 min at 15 C., followed by slow, careful aspiration of the HBSS supernatant (care should be taken to avoid aspirating tissue). (It is best to limit the centrifugation steps as much as possible.) About 1 to 3 ml of DMEM/F12/N2 medium (see below) was immediately added to the remaining tissue; the volume of medium depends on the quantity of the dissected tissue. The tissue was gently triturated about 8 to 10 times using a P-1000 Pipetteman until the tissue was dissociated (as evidenced by cloudy solution), then the tube was incubated in the hood for 5 minutes at room temperature to permit settlement of small particles of undissociated tissue. The supernatant was then transferred into a fresh tube, taking care to avoid the smaller particles of tissue that remained at the bottom of the tube.
Plating and expansion of cerebellar stem cells. The triturated cell suspension of E19 rat cerebellum was seeded into pre-coated 10 cm dishes at 2×10^6 cells per dish. This is denoted as the P0 culture (passage 0). The cells were grown in 5 ml of DMEM/F12/N2 supplemented with 25 mg/L insulin and 10 ng/ml bFGF at 37 C, 5% CO2 and 90% humidity.
Cells were fed daily with 10 ng/ml bFGF. The medium was changed one day after the cells were seeded, and thereafter every other day. On about day 4 of the culture, or when cells reached 70% confluence, the culture was passaged (see “Passage of cerebellar stem cells” below) and seeded into 10 cm dishes at an initial density of 2×10^6 cells per dish. This is denoted as the P1 culture (passage 1). The passaged cells at P1 were grown in DMEM/F12/N2 medium supplemented with 25 mg/L insulin and 10 ng/ml bFGF. The medium was changed every other day.
After two days of culture, some cells were passaged into a P2 culture, and some were seeded in 12-well tissue culture plates for experimental use. One ml of DMEM/F12/N2 medium was used per well of a 12-well plate at 2×10^4 cells per well. Experimental treatments were initiated the day after passage.
Drug treatments. Stem cells obtained as described above were treated with drugs and subjected to differentiation protocols in the second passage. Cells were plated at a density of 1×10^4 cells per well of a 12-well petridish (Falcon).
Drug treatments were started on the next day. […] The WAY 100635 antagonist compound was used simultaneously with buspirone or serotonin in the blocking experiments.

In the case of `O=C1CC2(CCCC2)CC(=O)N1CCCCN1CCN(c2ncccn2)CC1` [buspirone, 8-[4-[4-(2-pyrimidinyl)-1-piperazinyl]butyl]-8-azaspiro[4,5]decane-7,9-dione], the “% Tuj 1 positive cells” value runs as follows: (10 nM, Table 2 experiment) 40.0 ± 3.7%; (10 nM, Table 3 experiment) 30.7 ± 2.33%; (30 nM, Table 2 experiment) 41.2 ± 6.7%; (30 nM, Table 3 experiment) 37.4 ± 2.6%; (100 nM, Table 2 experiment) 33.1 ± 2.6%; (100 nM, Table 3 experiment) 46.6 ± 3.8%. For the same compound, the “% Tuj 1 positive cells” value runs as follows: (300 nM, Table 2 experiment) 26.1 ± 3.9%; (1000 nM, Table 2 experiment) 21.9 ± 3.9%; (1000 nM, Table 3 experiment) 40.3 ± 2.8%. Further, the “% TuJ1 positive cells” value (100 nM, Table 5 experiment) came to 54.4 ± 2.1%; the “% TuJ1 positive cells” value (500 nM, Table 4 experiment) was found to be 56.8 ± 7.1%; the “% TuJ1 positive cells” value (500 nM, Table 5 experiment) is 64.8 ± 2.1%; the “% TuJ1 positive cells” value (10 μM, Table 5 experiment) was determined as 67.9 ± 10.2%; the “% TuJ1 positive cells” value (100 μM, Table 5 experiment) worked out at 68.5 ± 6.5%. For the same compound, the “concentration inducing the highest percentage of neuronal differentiation” value (FIG. 1, lane 4) is recorded as ~100 nM. Besides, the “neuronal differentiation of neural stem cells (percent of neurons, TuJ1 positive)” value (FIG. 1, lanes 2–5, dosage range 10 nM to 300 nM, about 6 days) is 40–55%. The same compound registered a differentiation of neurons (FIG. 2, lane 3, buspirone 500 nM, untreated control less than 20%) of 50%. Also, where the note is “concentrations from 10 nm to 100 um, Tables 2–5”, the “promotion of neuronal differentiation of neural stem cells (in words)” value is on record as “effective at promoting neuronal differentiation”.
